Laboratory results: patent US5604095A, “Unsymmetrically linked bisnaphthalimides as antitumor agents” (Cancer Therapy & Research Center, priority 1994, dated 1997)
Read-outs that look alike come from different tables or passages of the source.

Tests used:
[1] = system: solid tumor xenografts, human and murine leukemia, doxorubicin resistant cell lines, colon carcinoma cells; conditions: cited from earlier work
[2] = cited from earlier work
[3] = system: MX-1 human breast carcinoma; conditions: literature; cited from earlier work
LX-1 lung carcinoma = conditions: literature; cited from earlier work
[4] = system: DLD-2 human colon adenocarcinoma; conditions: literature; cited from earlier work
B16 melanoma [5] = experiment: In vivo tumor inhibiting activity vs. B16 melanoma in B6D2F1 mice; conditions: q.d. × 5, i.p., day 7
Experimental: B16 Melanoma: B6D2F1 mice received i.p. inocula of B16 murine melanoma brei prepared from B16 tumors growing subcutaneously in mice (day 0). On day 1, rumored mice were treated with drugs or vehicle control; the route of drug administration and schedule were selected as appropriate for the study in question. If dosing information for agents was not available, the maximum tolerated dose (MTD) was determined in initial dose finding experiments in non-rumored mice. In a typical experiment, drugs were given at their MTD and 1/2 MTD doses i.p. on a daily×5 schedule.
The mean survival times of all groups were calculated, and results were expressed as mean survival of treated mice/mean survival of control mice (T/C)×100%. A T/C value of 150 means that the mice in the treated group lived 50% longer than those of the control group; this is sometimes referred to as the increase in life space, or ILS value.
Mice that survived for 60 days were considered long term survivors, or cures, in the B16 model. The universally accepted cut-off for activity in this model, which has been used for years by the National Cancer Institute, is T/C=125. Conventional use of B16 over the years has set the following levels of activity: T/C<125, no activity; T/C=125-150, weak activity; T/C=150-200, modest activity; T/C=200-300, high activity; T/C>300, with long term survivors, excellent, curative activity (Goldin et al., 1981).
Statistics were performed on the data using primarily the log rank p-value test.

B16 melanoma [6] = conditions: Chen et al., 1993; cited from earlier work

Compound	toxicity ([1]; literature)	anti-tumor efficacy in vivo ([1]; solid tumor xenografts, leukemia, doxorubicin resistant lines, colon carcinoma)	water solubility ([2]; reported) [µg/mL]	in vivo anti-tumor activity against MX-1 [3]	anti-tumor efficacy in vivo against LX-1 lung carcinoma (LX-1 lung carcinoma)	in vivo anti-tumor activity against DLD-2 [4]	Wt. Ch. (Day 7) (B16 melanoma [5]; 5 mg/kg)	Wt. Ch. (Day 7) (B16 melanoma [5]; 10 mg/kg) [%]	water solubility ([2]; Sun et al., 1993) [µg/mL]	activity against B16 melanoma (B16 melanoma [6])
C[C@H](CNCCNC[C@@H](C)N1C(=O)c2cccc3cc([N+](=O)[O-])cc(c23)C1=O)N1C(=O)c2cccc3cc([N+](=O)[O-])cc(c23)C1=O [DMP840, (R,R)-2,2'[1,2-ethanediylbis[imino(1-methyl-2,1-ethanediyl)]]-bis[5-nitro-1H-benz[de]isoquinoline-1,3-(2H)-dione] dimethanesulfonate]	no irreversible toxicities	anti-tumor efficacy in vivo	3400	anti-tumor efficacy in vivo	anti-tumor efficacy in vivo	anti-tumor efficacy in vivo	+4.6%	-0.33	–	–
CS(=O)(=O)O.O=C1c2cccc3cc([N+](=O)[O-])cc(c23)C(=O)N1CCCCNCCCN1C(=O)c2cccc3cc([N+](=O)[O-])cc(c23)C1=O [XB596]	–	–	–	demonstrated in vivo anti-tumor activity	–	demonstrated in vivo anti-tumor activity	–	–	45	ineffective against B16 melanoma
